In ChEMBL document CHEMBL1201862, “PubChem BioAssay data set” (2004):
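Five compound concentrations were applied to cells in 96-well plates for 48 hours; endpoints were derived by simple linear interpolation of the resulting dose-response curve. GI50 is the concentration that inhibits growth by half.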 Active and inactive are the calls of the source. Rule as the data show it: active = GI50 up to about 1.1 µM and inactive = higher.

Experiments:
Test in all cases: NCI tumour cell line growth inhibition, 48 h
786-0 = test system: 786-0
CAKI-1 = test system: CAKI-1
CCRF-CEM = test system: CCRF-CEM
COLO 205 = test system: COLO 205
HCT-116 = test system: HCT-116
HCT-15 = test system: HCT-15
K562 = test system: K562
KM12 = test system: KM12
NCI-H226 = test system: NCI-H226
OVCAR-4 = test system: OVCAR-4
SF-268 = test system: SF-268
SK-MEL-5 = test system: SK-MEL-5
SNB-19 = test system: SNB-19
U-251 = test system: U-251
UO-31 = test system: UO-31
HL-60 = test system: HL-60
Hs-578T = test system: Hs-578T
MDA-MB-231 = test system: MDA-MB-231
NCI/ADR-RES = test system: NCI/ADR-RES

**Q.** For `Nc1ccc(-c2cc(C(=O)Nc3nccs3)nc(S)n2)cc1`, which GI50 (786-0) is on record?
**A.** > 100 µM (inactive)

**Q.** What about the GI50 (CAKI-1) of the same compound?
**A.** > 100 µM (inactive)

**Q.** What about the GI50 (CCRF-CEM) of the same compound?
**A.** > 100 µM (inactive)

**Q.** What about the GI50 (COLO 205) of the same compound?
**A.** > 100 µM (inactive)

**Q.** And the GI50 (HCT-116)?
**A.** > 100 µM (inactive)

**Q.** What about the GI50 (HCT-15) of the same compound?
**A.** > 100 µM

**Q.** And the GI50 (K562)?
**A.** > 100 µM (inactive)

**Q.** What about the GI50 (KM12) of the same compound?
**A.** > 100 µM (inactive)

**Q.** And the GI50 (NCI-H226)?
**A.** > 100 µM (inactive)

**Q.** And the GI50 (OVCAR-4)?
**A.** > 100 µM (inactive)

**Q.** What about the GI50 (SF-268) of the same compound?
**A.** > 100 µM (inactive)

**Q.** And the GI50 (SK-MEL-5)?
**A.** > 100 µM (inactive)

**Q.** And the GI50 (SNB-19)?
**A.** > 100 µM (inactive)

**Q.** What about the GI50 (U-251) of the same compound?
**A.** > 100 µM (inactive)

**Q.** And the GI50 (UO-31)?
**A.** > 100 µM (inactive)

**Q.** How did the GI50 (786-0) turn out when `CCNc1nnc(CSc2nc(-c3ccccc3)c(-c3ccccc3)[nH]2)s1` was run?
**A.** 24.4 µM (inactive)

**Q.** And the GI50 (CCRF-CEM)?
**A.** 18.3 µM (inactive)

**Q.** What about the GI50 (COLO 205) of the same compound?
**A.** 19.1 µM (inactive)

**Q.** And the GI50 (HCT-116)?
**A.** 22 µM (inactive)

**Q.** What about the GI50 (HCT-15) of the same compound?
**A.** 18.3 µM

**Q.** What about the GI50 (HL-60) of the same compound?
**A.** 15.5 µM (inactive)

**Q.** And the GI50 (KM12)?
**A.** 9.38 µM (inactive)

**Q.** And the GI50 (NCI-H226)?
**A.** 13.4 µM (inactive)

**Q.** What about the GI50 (OVCAR-4) of the same compound?
**A.** 30.5 µM (inactive)

**Q.** And the GI50 (SF-268)?
**A.** 15.7 µM (inactive)

**Q.** And the GI50 (SK-MEL-5)?
**A.** 11.8 µM (inactive)

**Q.** What about the GI50 (SNB-19) of the same compound?
**A.** 16.7 µM (inactive)

**Q.** What about the GI50 (U-251) of the same compound?
**A.** 13.7 µM (inactive)

**Q.** What about the GI50 (UO-31) of the same compound?
**A.** 14 µM (inactive)

**Q.** For `COC(=O)C(=O)Cc1nc2ccccc2s1`, which GI50 (786-0) is on record?
**A.** > 100 µM (inactive)

**Q.** What about the GI50 (CAKI-1) of the same compound?
**A.** > 100 µM (inactive)

**Q.** And the GI50 (CCRF-CEM)?
**A.** > 100 µM (inactive)

**Q.** What about the GI50 (COLO 205) of the same compound?
**A.** > 100 µM (inactive)

**Q.** And the GI50 (HCT-116)?
**A.** > 100 µM (inactive)

**Q.** And the GI50 (HCT-15)?
**A.** > 100 µM

**Q.** What about the GI50 (HL-60) of the same compound?
**A.** > 100 µM (inactive)

**Q.** And the GI50 (K562)?
**A.** > 100 µM (inactive)

**Q.** What about the GI50 (NCI-H226) of the same compound?
**A.** > 100 µM (inactive)

**Q.** What about the GI50 (OVCAR-4) of the same compound?
**A.** > 100 µM (inactive)

**Q.** What about the GI50 (SF-268) of the same compound?
**A.** > 100 µM (inactive)

**Q.** And the GI50 (SK-MEL-5)?
**A.** > 100 µM (inactive)

**Q.** And the GI50 (SNB-19)?
**A.** > 100 µM (inactive)

**Q.** And the GI50 (U-251)?
**A.** > 100 µM (inactive)

**Q.** And the GI50 (UO-31)?
**A.** > 100 µM (inactive)

**Q.** What does the source list for `CCOC(=O)c1c(NNc2ccccc2)nc2ccccc2c1-c1ccccc1`?
**A.** GI50 (786-0): 31.7 µM (inactive); GI50 (CAKI-1): 37.1 µM (inactive); GI50 (CCRF-CEM): 10.9 µM (inactive); GI50 (COLO 205): 30 µM (inactive); GI50 (HCT-116): 21.8 µM (inactive); GI50 (HCT-15): 33 µM; GI50 (HL-60): 15.8 µM (inactive); GI50 (K562): 22.5 µM (inactive); GI50 (KM12): 31.4 µM (inactive); GI50 (NCI-H226): 28.2 µM (inactive); GI50 (OVCAR-4): 37.5 µM (inactive); GI50 (SF-268): 31.1 µM (inactive); GI50 (SK-MEL-5): 20.4 µM (inactive); GI50 (SNB-19): 41.8 µM (inactive); GI50 (U-251): 34.4 µM (inactive); GI50 (UO-31): 25.8 µM (inactive)

**Q.** What does the source list for `CC(CCCOC(c1ccccc1)(c1ccccc1)c1ccccc1)OC(=O)Nc1cc([N+](=O)[O-])cc([N+](=O)[O-])c1` (configuration not stated)?
**A.** GI50 (786-0): 28.2 µM (inactive); GI50 (CAKI-1): 18.5 µM (inactive); GI50 (CCRF-CEM): 32.4 µM (inactive); GI50 (HCT-116): 33.9 µM (inactive); GI50 (HCT-15): 32.4 µM; GI50 (HL-60): 31.6 µM (inactive); GI50 (K562): 32.1 µM (inactive); GI50 (KM12): 32.1 µM (inactive); GI50 (OVCAR-4): 37.5 µM (inactive); GI50 (SF-268): 35.5 µM (inactive); GI50 (SK-MEL-5): 22.8 µM (inactive); GI50 (SNB-19): 57.5 µM (inactive); GI50 (U-251): 36.9 µM (inactive); GI50 (UO-31): 49 µM (inactive)

**Q.** With `C/C1=C\[C@H](C)C[C@H](C)OC(=O)C[C@H](c2ccc(O)cc2)NC(=O)[C@H](Cc2ccc(O)c(Br)c2)N(C)C(=O)[C@H](C)NC(=O)[C@@H](C)C1` as the compound, how does the GI50 (786-0) read?
**A.** > 25 µM (inactive)

**Q.** What about the GI50 (CCRF-CEM) of the same compound?
**A.** > 25 µM (inactive)

**Q.** And the GI50 (COLO 205)?
**A.** > 25 µM (inactive)

**Q.** And the GI50 (HCT-116)?
**A.** > 25 µM (inactive)

**Q.** And the GI50 (HCT-15)?
**A.** > 25 µM

**Q.** What about the GI50 (Hs-578T) of the same compound?
**A.** > 25 µM (inactive)

**Q.** And the GI50 (K562)?
**A.** > 25 µM (inactive)

**Q.** And the GI50 (KM12)?
**A.** > 25 µM (inactive)

**Q.** What about the GI50 (MDA-MB-231) of the same compound?
**A.** > 25 µM (inactive)

**Q.** And the GI50 (NCI-H226)?
**A.** > 25 µM (inactive)

**Q.** What about the GI50 (NCI/ADR-RES) of the same compound?
**A.** > 25 µM (inactive)

**Q.** What about the GI50 (OVCAR-4) of the same compound?
**A.** > 25 µM (inactive)

**Q.** What about the GI50 (SF-268) of the same compound?
**A.** > 25 µM (inactive)

**Q.** What about the GI50 (SK-MEL-5) of the same compound?
**A.** > 25 µM (inactive)

**Q.** What about the GI50 (SNB-19) of the same compound?
**A.** > 25 µM (inactive)

**Q.** And the GI50 (U-251)?
**A.** > 25 µM (inactive)

**Q.** And the GI50 (UO-31)?
**A.** > 25 µM (inactive)

**Q.** What does the source list for `COCN1COCN/C1=N\C#N`?
**A.** GI50 (786-0): > 100 µM (inactive); GI50 (CAKI-1): > 100 µM (inactive); GI50 (COLO 205): 41 µM (inactive); GI50 (HCT-116): > 100 µM (inactive); GI50 (HCT-15): 51.8 µM; GI50 (HL-60): > 100 µM (inactive); GI50 (K562): 88.3 µM (inactive); GI50 (KM12): > 100 µM (inactive); GI50 (NCI-H226): > 100 µM (inactive); GI50 (OVCAR-4): 75.5 µM (inactive); GI50 (SF-268): > 100 µM (inactive); GI50 (SK-MEL-5): > 100 µM (inactive); GI50 (SNB-19): > 100 µM (inactive); GI50 (U-251): > 100 µM (inactive); GI50 (UO-31): > 100 µM (inactive)

**Q.** What does the source list for `Cc1ccc(S(=O)(=O)NC(C)C(=O)O)cc1` (configuration not stated)?
**A.** GI50 (786-0): > 100 µM (inactive); GI50 (CAKI-1): > 100 µM (inactive); GI50 (COLO 205): > 100 µM (inactive); GI50 (HCT-15): > 100 µM; GI50 (HL-60): > 100 µM (inactive); GI50 (KM12): > 100 µM (inactive); GI50 (NCI-H226): > 100 µM (inactive); GI50 (OVCAR-4): > 100 µM (inactive); GI50 (SF-268): > 100 µM (inactive); GI50 (SK-MEL-5): > 100 µM (inactive); GI50 (SNB-19): > 100 µM (inactive); GI50 (U-251): > 100 µM (inactive); GI50 (UO-31): > 100 µM (inactive)

**Q.** How did the GI50 (786-0) turn out when `O=C1CC(c2c(-c3ccccc3)[nH]c3ccccc23)C(=O)N1` (configuration not stated) was run?
**A.** > 100 µM (inactive)

**Q.** What about the GI50 (CAKI-1) of the same compound?
**A.** 71.9 µM (inactive)

**Q.** And the GI50 (CCRF-CEM)?
**A.** > 100 µM (inactive)

**Q.** And the GI50 (HCT-116)?
**A.** > 100 µM (inactive)

**Q.** What about the GI50 (HCT-15) of the same compound?
**A.** > 100 µM

**Q.** And the GI50 (HL-60)?
**A.** > 100 µM (inactive)

**Q.** And the GI50 (K562)?
**A.** > 100 µM (inactive)

**Q.** And the GI50 (KM12)?
**A.** > 100 µM (inactive)

**Q.** What about the GI50 (NCI-H226) of the same compound?
**A.** > 100 µM (inactive)

**Q.** And the GI50 (OVCAR-4)?
**A.** > 100 µM (inactive)

**Q.** What about the GI50 (SK-MEL-5) of the same compound?
**A.** > 100 µM (inactive)

**Q.** What about the GI50 (U-251) of the same compound?
**A.** > 100 µM (inactive)

**Q.** What about the GI50 (UO-31) of the same compound?
**A.** 76.6 µM (inactive)
